Measured values as given in patent publication US10168342B2, “Lipid probes and uses thereof” (THE SCRIPPS RESEARCH INSTITUTE, priority 2015, dated 2019).
Like-named read-outs stand apart in the source and are kept apart here.

Experiments:
[1] = biological target: T1, AEA-DA lipid probe targets in Neuro2a cells (Mus musculus, UniProt Q7TMK9)
T1 sequence (Q7TMK9 1-623): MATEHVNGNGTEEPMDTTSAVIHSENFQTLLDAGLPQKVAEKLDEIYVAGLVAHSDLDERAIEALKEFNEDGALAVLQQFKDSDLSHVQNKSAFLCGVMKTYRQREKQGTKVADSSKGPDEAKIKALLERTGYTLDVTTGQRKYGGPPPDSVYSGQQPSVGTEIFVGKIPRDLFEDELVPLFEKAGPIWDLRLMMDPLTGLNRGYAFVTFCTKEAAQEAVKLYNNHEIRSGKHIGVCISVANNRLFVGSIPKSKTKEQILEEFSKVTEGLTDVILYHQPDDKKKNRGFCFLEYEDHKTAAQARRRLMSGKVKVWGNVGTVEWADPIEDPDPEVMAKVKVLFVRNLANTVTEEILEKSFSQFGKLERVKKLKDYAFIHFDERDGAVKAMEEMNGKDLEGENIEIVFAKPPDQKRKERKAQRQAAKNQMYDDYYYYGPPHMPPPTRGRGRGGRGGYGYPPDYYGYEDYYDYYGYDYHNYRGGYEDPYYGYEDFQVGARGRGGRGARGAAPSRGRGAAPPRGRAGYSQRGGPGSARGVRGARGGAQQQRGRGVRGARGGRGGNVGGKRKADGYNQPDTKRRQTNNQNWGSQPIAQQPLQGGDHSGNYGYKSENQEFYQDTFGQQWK

[2] = biological target: AEA-DA lipid probe targets in Neuro2a cells (Mus musculus, UniProt Q91V04)
[3] = biological target: AEA-DA lipid probe targets in Neuro2a cells (Mus musculus, UniProt Q8C0L6)
[4] = biological target: T2, AEA-DA lipid probe targets in Neuro2a cells (Mus musculus, UniProt P46638)
T2 sequence (P46638 1-218): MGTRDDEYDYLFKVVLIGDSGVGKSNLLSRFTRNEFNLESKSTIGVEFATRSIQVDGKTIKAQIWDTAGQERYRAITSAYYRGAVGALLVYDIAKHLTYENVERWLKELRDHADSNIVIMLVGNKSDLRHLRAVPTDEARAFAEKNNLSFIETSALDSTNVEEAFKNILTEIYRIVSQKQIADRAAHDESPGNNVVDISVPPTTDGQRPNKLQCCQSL

[5] = biological target: T3, AEA-DA lipid probe targets in Neuro2a cells (Mus musculus, UniProt Q61712); conditions: for SILAC ratio, DNAJC1 (Q96KC8): Neuro2a cells, AEA-DA probe
T3 sequence (Q61712 44-552): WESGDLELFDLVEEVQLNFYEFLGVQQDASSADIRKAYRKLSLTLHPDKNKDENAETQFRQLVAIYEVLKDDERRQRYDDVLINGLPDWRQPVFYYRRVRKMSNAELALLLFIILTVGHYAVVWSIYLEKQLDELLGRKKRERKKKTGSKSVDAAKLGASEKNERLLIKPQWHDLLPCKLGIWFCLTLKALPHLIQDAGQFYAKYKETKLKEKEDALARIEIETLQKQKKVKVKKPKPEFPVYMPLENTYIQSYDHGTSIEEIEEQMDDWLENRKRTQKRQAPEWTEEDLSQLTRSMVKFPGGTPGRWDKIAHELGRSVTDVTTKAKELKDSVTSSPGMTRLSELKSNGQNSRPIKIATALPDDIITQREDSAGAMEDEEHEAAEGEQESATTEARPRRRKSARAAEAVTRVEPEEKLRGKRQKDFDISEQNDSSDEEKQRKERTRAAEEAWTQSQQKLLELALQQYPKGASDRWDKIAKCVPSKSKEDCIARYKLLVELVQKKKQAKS

[6] = biological target: T4, AEA-DA lipid probe targets in Neuro2a cells (Mus musculus, UniProt Q5SW19)
T4 sequence (Q5SW19 1-1315): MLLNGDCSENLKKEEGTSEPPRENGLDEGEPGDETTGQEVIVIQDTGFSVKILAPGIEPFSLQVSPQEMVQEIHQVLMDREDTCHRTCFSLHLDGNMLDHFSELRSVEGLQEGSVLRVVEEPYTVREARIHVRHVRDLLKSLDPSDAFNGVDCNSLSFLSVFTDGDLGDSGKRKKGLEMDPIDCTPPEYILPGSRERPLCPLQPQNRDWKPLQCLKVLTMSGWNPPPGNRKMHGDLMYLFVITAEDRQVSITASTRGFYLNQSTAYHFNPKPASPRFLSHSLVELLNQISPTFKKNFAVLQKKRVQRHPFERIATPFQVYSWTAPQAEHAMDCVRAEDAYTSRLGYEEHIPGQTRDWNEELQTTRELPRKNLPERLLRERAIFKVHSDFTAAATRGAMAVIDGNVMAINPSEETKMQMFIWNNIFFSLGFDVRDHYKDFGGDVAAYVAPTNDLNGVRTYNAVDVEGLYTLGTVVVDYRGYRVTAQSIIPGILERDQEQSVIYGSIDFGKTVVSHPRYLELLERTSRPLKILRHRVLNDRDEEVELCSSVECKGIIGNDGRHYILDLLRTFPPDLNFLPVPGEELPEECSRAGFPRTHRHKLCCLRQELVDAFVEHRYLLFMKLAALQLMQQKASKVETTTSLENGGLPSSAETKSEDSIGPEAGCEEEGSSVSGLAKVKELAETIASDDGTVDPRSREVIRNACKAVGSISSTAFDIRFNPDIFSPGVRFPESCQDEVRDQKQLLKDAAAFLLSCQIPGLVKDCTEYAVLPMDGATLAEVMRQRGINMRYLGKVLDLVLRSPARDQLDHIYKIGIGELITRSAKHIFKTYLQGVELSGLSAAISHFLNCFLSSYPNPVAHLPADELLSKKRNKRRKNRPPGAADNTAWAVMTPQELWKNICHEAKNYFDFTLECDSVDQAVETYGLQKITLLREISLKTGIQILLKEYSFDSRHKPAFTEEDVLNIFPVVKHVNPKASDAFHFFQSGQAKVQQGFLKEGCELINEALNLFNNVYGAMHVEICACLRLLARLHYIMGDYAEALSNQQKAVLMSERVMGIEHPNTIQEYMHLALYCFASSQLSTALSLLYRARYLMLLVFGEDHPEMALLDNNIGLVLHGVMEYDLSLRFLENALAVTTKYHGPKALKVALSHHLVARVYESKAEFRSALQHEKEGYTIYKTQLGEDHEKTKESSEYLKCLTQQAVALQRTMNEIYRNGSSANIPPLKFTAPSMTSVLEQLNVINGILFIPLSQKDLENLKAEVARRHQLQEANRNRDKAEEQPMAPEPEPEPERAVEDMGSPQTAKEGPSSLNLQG

Chain of AEA-DA lipid probe targets in Neuro2a cells (Mus musculus, UniProt Q8C0L6) (Q8C0L6 whole entry): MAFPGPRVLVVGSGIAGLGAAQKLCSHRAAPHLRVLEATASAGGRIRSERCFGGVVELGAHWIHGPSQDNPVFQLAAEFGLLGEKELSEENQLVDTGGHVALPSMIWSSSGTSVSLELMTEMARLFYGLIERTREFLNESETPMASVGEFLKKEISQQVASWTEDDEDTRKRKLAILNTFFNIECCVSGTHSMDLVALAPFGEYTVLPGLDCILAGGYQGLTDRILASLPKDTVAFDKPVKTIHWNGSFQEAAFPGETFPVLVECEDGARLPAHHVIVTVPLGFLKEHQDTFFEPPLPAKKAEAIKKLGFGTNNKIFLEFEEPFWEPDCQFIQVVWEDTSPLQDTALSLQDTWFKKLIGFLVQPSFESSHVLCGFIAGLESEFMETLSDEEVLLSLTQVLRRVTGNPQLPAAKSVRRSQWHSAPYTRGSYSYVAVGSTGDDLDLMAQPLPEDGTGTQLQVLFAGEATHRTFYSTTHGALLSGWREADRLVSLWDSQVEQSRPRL
Chain of AEA-DA lipid probe targets in Neuro2a cells (Mus musculus, UniProt Q91V04) (Q91V04 whole entry): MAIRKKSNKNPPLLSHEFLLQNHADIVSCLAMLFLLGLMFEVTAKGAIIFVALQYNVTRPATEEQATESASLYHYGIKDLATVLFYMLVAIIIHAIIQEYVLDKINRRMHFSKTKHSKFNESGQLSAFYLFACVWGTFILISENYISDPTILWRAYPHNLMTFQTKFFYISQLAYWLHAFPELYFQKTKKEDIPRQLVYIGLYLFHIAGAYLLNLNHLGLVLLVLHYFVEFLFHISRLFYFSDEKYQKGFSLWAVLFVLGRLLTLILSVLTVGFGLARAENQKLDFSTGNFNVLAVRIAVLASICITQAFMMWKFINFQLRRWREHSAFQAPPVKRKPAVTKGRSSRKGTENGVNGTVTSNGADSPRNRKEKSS

SMILES | SILAC ratio Syncrip ([1]; competitor 25 μM) | SILAC ratio, Tram1 ([2]; competitor 25 μM) | SILAC ratio Kiaa0664 ([6]; competitor 25 μM) | SILAC ratio, Paox ([3]; competitor 25 μM) | SILAC ratio, Rab11b ([4]; competitor 25 μM) | SILAC ratio, DNAJC1 (Q96KC8) ([5]; competitor 25 μM) | SILAC ratio, Dnajc1 ([5]; competitor 25 μM) | other results
CCCCC/C=C\C/C=C\C/C=C\C/C=C\CCCC(=O)NCCO [AEA, anandamide, reference compound] |  |  |  |  |  |  |  | SILAC ratio Syncrip ([1]; competitor 200 μM): 1.2; SILAC ratio, Tram1 ([2]; competitor 200 μM): 2.9; SILAC ratio, Paox ([3]; competitor 200 μM): 7.5; SILAC ratio, Rab11b ([4]; competitor 200 μM): 1.6; SILAC ratio, DNAJC1 (Q96KC8) ([5]; competitor 200 μM): 2.1; SILAC ratio, Dnajc1 ([5]; competitor 200 μM): 2.1
O=C(/C=C/c1cccnc1)NCCCCC1CCN(C(=O)c2ccccc2)CC1 [FK-866, reference compound] | 1.1 | 1.2 | 1.2 | 3.2 | 1.2 | 1.4 | 1.4 | 
CN1CCN(C(=O)c2c(-c3ccccc3)c3cc([N+](=O)[O-])ccc3n2C)CC1 [KML110, (1-Methyl-5-nitro-3-phenyl-1H-indol-2-yl)(4-methylpiperazin-1-yl)methanone] | 1.4 | 1.7 | 2.1 | 2.9 | 1.5 |  |  | 
CN1CCN(C(=O)c2[nH]c3ccc([N+](=O)[O-])cc3c2-c2ccccc2)CC1 [MJN228, (4-Methylpiperazin-1-yl)(5-nitro-3-phenyl-1H-indol-2-yl)methanone] | 1.2 | 1.8 | 2.2 | 3.2 | 1.6 | 1.6 | 1.6 | SILAC ratio Syncrip ([1]; competitor 10 μM): 0.9; SILAC ratio Syncrip ([1]; competitor 50 μM): 1.3; SILAC ratio Syncrip ([1]; competitor 100 μM): 1.1; SILAC ratio, Tram1 ([2]; competitor 10 μM): 1.3; SILAC ratio, Tram1 ([2]; competitor 50 μM): 1.9; SILAC ratio, Tram1 ([2]; competitor 100 μM): 5.4; SILAC ratio Kiaa0664 ([6]; competitor 10 μM): 1.5; SILAC ratio Kiaa0664 ([6]; competitor 50 μM): 1.0; SILAC ratio Kiaa0664 ([6]; competitor 100 μM): 1.9; SILAC ratio, Paox ([3]; competitor 10 μM): 2.1; SILAC ratio, Paox ([3]; competitor 50 μM): 4.5; SILAC ratio, Paox ([3]; competitor 100 μM): 13.5; SILAC ratio, Rab11b ([4]; competitor 10 μM): 1.2; SILAC ratio, Rab11b ([4]; competitor 50 μM): 1.8; SILAC ratio, Rab11b ([4]; competitor 100 μM): 2.4; SILAC ratio, Dnajc1 ([5]; competitor 10 μM): 1.0; SILAC ratio, Dnajc1 ([5]; competitor 50 μM): 1.5
C=CCN(C)CCCCCCOc1ccc(C(=O)c2ccc(Br)cc2)c(F)c1 [Ro 48-8071, reference compound] | 0.8 | 1.8 | 1.0 | 2.4 | 1.3 | 1.2 | 1.2 | 
